In publication PMC7318697 (2020) one finds ΔT m, binding and K d data, which are given here for five compounds.

The test system of experiment [1] is F21T (DNA, G4) GGGTTAGGGTTAGGGTTAGGG
The experiment can be described thus: FRET melting. The conditions noted are these: 10 mM Li cacodylate, ligand 5 μM, DNA 0.2 μM.

For experiment [2], the system named is telo23 (DNA, G4) TAGGGTTAGGGTTAGGGTTAGGG
The experiment is described as follows: UV/Vis titration. Particulars: K+ (100 mM potassium phosphate), pH 7.4, ligand 10 μM; for K d: apparent, independent and equivalent sites.

The test system of experiment [3] is FmycT (DNA, G4) TTGAGGGTGGGTAGGGTGGGTAA
The experiment can be described thus: FRET melting. Particulars: 1 mM KCl, 99 mM LiCl; 10 mM Li cacodylate; ligand 5 μM; DNA 0.2 μM.

In experiment [4] the test system is F10T (DNA, hairpin, hexaethylene glycol (HEG) linker between nucleotides 10 and 11) TATAGCTATATATAGCTATA
The experiment can be described thus: FRET melting. Particulars: 10 mM KCl, 90 mM LiCl; 10 mM Li cacodylate; ligand 5 μM; DNA 0.2 μM.

In experiment [5] the test system is telo23 (DNA, G4) TAGGGTTAGGGTTAGGGTTAGGG
The experiment is described as follows: 1H imino NMR titration. The conditions noted are these: 20 mM potassium phosphate, 70 mM KCl; pH 7.0, 298 K, 90% H2O/10% D2O; DNA 185 μM.

Experiment [6] deals with Febr1T (DNA, G4) GGGCAGGGGGTGATGGGGAGGAGCCAGGG
The experiment is described as follows: FRET melting. Particulars: 10 mM KCl, 90 mM LiCl; 10 mM Li cacodylate; ligand 5 μM; DNA 0.2 μM.

On to `CN1CCN(CCCNc2ccc3c(c2)/C(=C2/CCc4ccc(NCCCN5CCN(C)CC5)cc42)CC3)CC1`, for which the ΔT m in experiment [1] (10 mM KCl, 90 mM LiCl) stood at 0 °C; in experiment [1] (100 mM NaCl), 0 °C; in experiment [3], 0 °C; in experiment [4] it was 0 °C. Also, in experiment [2] (Kd too weak for accurate determination), the binding result is “weak”.

Compound `CN1CCN(CCCNc2ccc3c(c2)/C(=C2\CCc4ccc(NCCCN5CCN(C)CC5)cc42)CC3)CC1` returned a ΔT m in experiment [1] (10 mM KCl, 90 mM LiCl) of 6 °C. Moreover, the K d in experiment [2] was found to be 70 µM.

As for `C[n+]1ccc(-c2ccc3c(c2)/C(=C2/CCc4ccc(-c5cc[n+](C)cc5)cc42)CC3)cc1`, the K d in experiment [2] came out at 70 µM. Also, the binding result in experiment [5] is given as “yes”. The same compound displayed a ΔT m in experiment [6] of 9 °C.

`C[n+]1ccc(-c2ccc3c(c2)/C(=C2\CCc4ccc(-c5cc[n+](C)cc5)cc42)CC3)cc1`: the binding result in experiment [5] is “yes”. Further, the ΔT m in experiment [6] came to 22 °C.

On to `C[n+]1ccc(-c2ccc3c(c2)CC/C3=C2/CCc3cc(-c4cc[n+](C)cc4)ccc32)cc1`, for which the ΔT m is 28 °C in experiment [1] (10 mM KCl, 90 mM LiCl); 19 °C in experiment [1] (100 mM NaCl); 30 °C in experiment [3]; 17 °C in experiment [6]; 3 °C in experiment [4]. Moreover, in experiment [2], the K d was determined as 2 µM. The binding result in experiment [5] was “yes”.
